Source: US12599648B2, “Pharmaceutical composition comprising a combination of a guanylate cyclase C (GUCY2C) agonist and a short-chain fatty acid or prodrug thereof” (priority 2020, dated 2026)
Bridge positions count the residues as written; N and C are the ends. Peptide text beside a SMILES is read from it.

Assays:
[1] = Caecum and colon weight and diarrhea observation in the AOM/DSS mouse trial; assay type: in vivo, wild type mice (BALB/c)
Text: Thirty wild type mice (BALB/c) were maintained in individually ventilated cages (specific pathogen-free conditions) and divided in four age- and gender-matching groups at the age of 4 weeks. The schematic study set up of the mouse trial using AOM/DSS-based CRC mouse model is represented in FIG. 1.
Accordingly, group A received a semi-synthetic control diet (Hoevenaars F P M, van Schothorst E M, Horakova O, Voigt A, Rossmeisl M, Pico C, Caimari A, Kopecky J, Klaus S, Keijer J. BIOCLAIMS standard diet (BIOsd): a reference diet for nutritional physiology. Genes Nutr. 2012; 7:399-404), group B received a semi-synthetic diet with fiber-supplementation (containing about 46,2 g resistant starch type 2 per 1 kg diet), group C received a semi-synthetic control diet with linaclotide supplementation in drinking water (0.069 μg/mL; replaced every second day; dosage of linaclotide was calculated based on a previous study that applied 0.207 μg/day/mouse via oral gavage (Sharman S K, Islam B N, Hou Y, Singh N, Berger F G, Sridhar S, Yoo W, Browning D D. Cyclic-GMP-Elevating Agents Suppress Polyposis in ApcMin Mice by Targeting the Preneoplastic Epithelium. Cancer Prev Res (Phila Pa). 2018; 11:81-92.) and an assumed daily intake of 3 mL H2O per mouse; this mimics a daily intake of about 0.6 mg in a 70 kg healthy human, which is close to amounts used in previous clinical studies (Weinberg D S, Lin J E, Foster N R, Della'Zanna G, Umar A, Seisler D, Kraft W K, Kastenberg D M, Katz L C, Limburg P J, et al. Bioactivity of Oral Linaclotide in Human Colorectum for Cancer Chemoprevention. Cancer Prev Res Phila Pa. 2017; 10:345-54.)), group D received a combination of fiber-supplemented diet (containing about 46,2 g resistant starch type 2 per 1 kg diet), and linaclotide (0.069 μg/mL).
FIGS. 4 a) to d) represent graphs on the effect of butyrate acting as osmotic antagonist of linaclotide or GUCY2C signaling limiting the flow of H2O to the gut lumen. […] Single dots represent single mice; statistical analysis using One-way ANOVA with Kruskal-Wallis post-test, *=p<0.05. **=p<0.01.

[2] = in vivo; cited from earlier work
[3] = test system: colonic tumors after AOM/DSS treatment; settings: diet supplemented with tributyrin; Donohoe et al.; cited from earlier work
[4] = cited from earlier work

| Compound | caecum weight (indication of amounts of H2O in the gut lumen) ([1]; FIG. 4a) | colon weight (indication of amounts of H2O in the gut lumen) ([1]; FIG. 4b) | side effect diarrhea ([1]; at the administered linaclotide concentration (0.069 μg/mL drinking water)) | people taking the drug who have diarrhea [2] | tumor levels in the colon after AOM/DSS treatment [3] | solubility in water [4] |
| --- | --- | --- | --- | --- | --- | --- |
| C[C@@H]1NC(=O)[C@@H]2CCCN2C(=O)[C@H](CC(N)=O)NC(=O)[C@@H]2CSSC[C@H](N)C(=O)N[C@H]3CSSC[C@H](NC1=O)C(=O)N[C@@H]([C@@H](C)O)C(=O)NCC(=O)N[C@H](C(=O)N[C@@H](Cc1ccc(O)cc1)C(=O)O)CSSC[C@H](NC(=O)[C@H](Cc1ccc(O)cc1)NC(=O)[C@H](CCC(=O)O)NC3=O)C(=O)N2 [linaclotide, Linaclotide] (H-CCEYCCNPACTGCY-OH; disulfide 1-6, 2-10, 5-13) | higher | higher | did not observe | More than 10% |  |  |
| CCCC(=O)OCC(COC(=O)CCC)OC(=O)CCC [Tributyrin, 1,3-di(butanoyloxy)propan-2-yl butanoate] |  |  |  |  | lowest tumor levels | only poorly soluble |
